Results taken from patent US9522928B2, “Mannosylated compounds useful for the prevention and the treatment of infectious diseases” (UNIVERSITE DE STRASBOURG, priority 2011, dated 2016).
Entries after “also recorded” stand apart in the source; their conditions may differ. Like-named read-outs stand apart in the source and are kept apart here.

Tests used:
[1] = Critical micelle concentration (CMC), pyrene fluorescent probe; type: physicochemical; settings: in water
Method: DiManinsatC24 was prepared according a procedure similar to that used for the preparation of TriDiManC24 except that: • pentacosanoic acid was replaced by 10,12-pentacosadiynoic acid, and • before the coupling with 10,12-pentacosadiynoic acid, the benzyl groups of compound 33 were replaced by acetyl group so as to provide compound 108 (as illustrated in FIG. 3E). ^1H NMR δ(ppm) (MeOD, 400 MHz) 4.87 (s, 3H), 4.73 (s, 3H), 3.64-3.50 (m, 14H), 3.46-3.20 (m, 76H), 2.97-2.93 (m, 6H), 2.33 (t, 6H, J=6.8 Hz), 2.09-1.96 (m, 6H), 1.08-1.05 (m, 32H), 0.66 (t, 3H, J=6.8 Hz). ^13C NMR δ (ppm) (MeOD, 100 MHz) 173.7, 168.8, 104.2, 101.2, 80.6, 80.4, 75.1, 74.7, 72.5, 72.2, 72.1, 71.9, 71.8, 71.7, 71.6, 71.4, 69.4, 69.1, 68.9, 68.7, 68.6, 68.0, 63.2, 63.1, 42.2, 37.0, 34.8, 33.7, 33.1, 30.8, 30.7, 30.6, 30.5, 30.4, 30.2, 29.5, 28.1, 27.0, 26.0, 23.7, 19.7, 14.4. […] The hydrodynamic diameters of micelles of glycolipids were measured in water using a Zetasizer Nano ZS system (Malvern Instruments). The CMCs were measured using pyrene as an extrinsic fluorescent probe and were carried out as described (Perino et al., 2011). […] Fluorescent emission of pyrene was measured at 25° C. using a Fluorolog spectrofluorometer (Jobin Yvon, Horiba). The intensities of fluorescence emission were determined at 374 nm (I374) and at 383 nm (I383), with an excitation at a 339 nm wavelength. […]

DC-SIGN CRD = biological target: T1, DC-SIGN CRD (Homo sapiens, UniProt Q9NNX6); test: Surface plasmon resonance (SPR) binding to immobilised DC-SIGN CRD; settings: for KD (μM) / Kd: Kd=koff/kon
T1 construct: human DC-SIGN (Lys62-Ala404, from R§D Systems); purchased R&D Systems ('R§D Systems' [sic])
T1 sequence (Q9NNX6 62-404): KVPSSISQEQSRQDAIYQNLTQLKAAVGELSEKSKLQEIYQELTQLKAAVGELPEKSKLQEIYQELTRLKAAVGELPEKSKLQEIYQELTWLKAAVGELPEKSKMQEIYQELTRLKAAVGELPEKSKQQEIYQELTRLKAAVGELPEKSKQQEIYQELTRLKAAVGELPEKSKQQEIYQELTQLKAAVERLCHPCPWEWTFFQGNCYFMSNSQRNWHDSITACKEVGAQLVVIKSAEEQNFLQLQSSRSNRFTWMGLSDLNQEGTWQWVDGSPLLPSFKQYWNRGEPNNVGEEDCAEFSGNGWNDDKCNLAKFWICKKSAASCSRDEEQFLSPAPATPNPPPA
Method: SPR experiments were performed using a Biacore 3000. […] Biosensor assays were performed with HEPES-buffered saline (10 mM HEPES, 150 mM sodium chloride, pH 7.4) containing 0.005% surfactant P20 and 5 mM CaCl2 as a running buffer. All binding experiments were carried out at 25° C. with a constant flow rate of 20 μl/min. The different compounds dissolved in the running buffer (0.39 to 50 μM) were injected for 3 min, followed by a dissociation phase of 3 min. The sensor chip surface was regenerated after each experiment by injecting 10 μL of EDTA 0.5 M pH 8.0. A simple channel activated by EDC/NHS and deactivated with ethanolamine was used as control. The kinetic parameters were calculated using the BlAeval 4.1 software. Analysis was performed using the simple Langmuir binding model with separate ka/kd (kon/koff). The specific binding profiles were obtained after subtracting the response signal from the control channel and from blank-buffer injection. The fitting to each model was judged by the chi square value and randomness of residue distribution compared to the theoretical model (Langmuir binding 1:1).
The binding affinity of mannoside derivatives for the carbohydrate recognition domain (CRD) of DC-SIGN was assessed by surface plasmon resonance (SPR).
A CM5 sensor chip was functionalized with the DC-SIGN CRD, and increasing concentrations of the various compounds, mannan as a positive control and octaethyleneglycol (OEG) as a negative control, were injected over the chip surface. The association (kon) and dissociation (koff) rate constants and the resulting dissociation equilibrium constant (Kd=koff/kon) for each assessed compound were determined (see Table 1 hereunder).

HIV-1 R5 = HIV-1 R5 trans-infection of MAGI-CCR5 cells mediated by DCs; type: cell-based
Method: ManC1, […] (comparative) and compounds of the invention (ManC24, ManC17, TriManC24, TriDiManC24, TriManinsatC24 and ManinsatC24) were serially diluted in water. Human DCs (1×10^5 in 200 μl ) were pre-treated with different concentrations of compounds, or mannan (Sigma) or culture medium alone, in RPMI 1640 medium containing 10% FBS for 45 min at 37° C., prior infection with HIV-1 (100 ng of p24Gag) for 3 h. Excess free virus and molecules were removed by three washes. DCs were then cocultured with MAGI -CCR5 cells (1×10^5) at 37° C. plated in a 48-well plate. After two days, viral infection of MAGI-CCR5 cells was quantitated following beta-galactosidase assays and enumerating blue cells by light microscopy.
The IC50 were determined by serial dilution of each compound. The trans-infection assays were repeated a minimum of three times, and the IC50 determined using KaleidaGraph.
To investigate the ability of the compounds of the invention to inhibit HIV-1 trans infection, we chose to infect human DCs in order to best mimic in vivo conditions. Human DCs were exposed to different compounds (namely, Mannan (control), ManC1 (comparative), ManC11 (comparative), ManC17, ManC24, TriManC24, TriDiManC24, ManinsatC24 and TriManinsatC24) for 45 min at 37° C., before inoculation with HIV-1 (strains R5 and X4) for 3 hours. After extensive washings to remove unbound virions and mannosides, DCs were then co-cultured with MAGI-CCR5 cells. This procedure allows precise quantification of HIV-1 replication in reporter MAGI-CCR5 cells by detection of beta-galactosidase activity. These cells express an integrated copy of the HIV long terminal repeat (LTR) fused to the beta-galactosidase reporter gene, and express the CD4 receptor and the CCR5 and CXCR4 co-receptors, required for entry of HIV-1 R5 and X4 respectively. Upon viral entry leading to viral Tat expression and activation of the LTR, these cells permit quantification of HIV trans-infection after two days.

HIV-1 (R5 strain) = test: HIV-1 cis-infection and replication in DCs (p24Gag ELISA); type: cell-based; settings: 10 and 100 μM, p24Gag in supernatant
Method: Human monocyte-derived dendritic cells (2×10^5; 300 μL) in RPMI 1640 medium containing 10% FBS were pre-treated with either anti-DC-SIGN antibodies (clone AZND1, Beckman-Coulter; 10 μg/mL) or compounds TriManC24 and TriManC24insat (10 and 100 μM) for 30 min at 37° C., before inoculation with HIV-1 (R5 strain; 100 ng of p24Gag). After 3 h, cells were pelleted and extensively washed to remove excess virus and compounds. On day 2, 4 and 7 after infection, cells were pelleted, an aliquot of the supernatant was removed and kept at −20° C., and half of the supernatant was replaced with fresh medium. Viral replication was monitored by measuring p24Gag levels in the culture supernatant by an enzyme-linked immunosorbent assay (ELISA, Innogenetics). […] As shown in the case of Dengue virus, the compounds of the invention may also interfere with HIV cis-infection. […] Discussion

Dengue virus 2 (DV2) = test: Dengue virus (DV2) cis-infection of human DCs; type: cell-based; settings: for percentage of infected DCs: 48 hours
Method: Compounds of the invention (TriManC24, TriManinsatC24) were serially diluted in water. Human DCs (2.5×10^5 in 200 μl) in 48-well plates were pre-treated with different concentrations of compounds or culture medium alone, in RPMI 1640 medium […] for 30 min at 37° C. They were exposed to DV-2 at a multiplicity of infection of 1.0, for 2 h at 37° C. Cells were washed and cultured in complete RPMI medium (condition 1) or in complete medium containing the tested compounds (TriManC24, TriMannsatC24) (condition 2). After 48 h, supernatants were titered and cells were subjected to intracellular detection of viral antigens. DCs were fixed with 4% (v/v) paraformaldehyde and permeabilized with 0.1% (v/v) Triton X-100 for 3 min at room temperature. After washing, they were labeled with mouse anti-DV type 2 monoclonal antibody (3H5.1, Millipore) and stained with APC -conjugated rat anti-mouse IgG1. Fluorescence intensity of the cells was analyzed by flow cytometry (FACSCalibur, Becton Dickinson), using the Cell Quest Pro software.
There are four different dengue serotypes (1-4), and we have used DV type 2 (DV2) to further investigate the ability of the compounds of the invention (TriManC24 and TriManinsatC24) to inhibit the infection of human DCs. These cells were pre-treated with different concentrations of compounds or culture medium alone, for 30 min at 37° C. They were then exposed to DV2 for 2 hours at 37° C. Cells were washed to remove excess virions and compounds, and further cultured either in the absence (condition 1) or in the presence (condition 2) of the tested compounds. After 48 hours, cells were subjected to intracellular detection of viral antigens, and supernatants were titrated (not shown). […] FIG. 3A and FIG. 3B show the percentage of infected DCs when incubated with distinct concentrations of TriManinsatC24 in condition 1 and in condition 2, respectively. The histograms clearly show the protecting effects of TriManinsatC24, in particular in condition 2 wherein TriManinsatC24 at 10, 50 and 100 μM enabled the percentage of infected DCs to be reduced down to 40%, 20% and 2% respectively.

Row | Compound | ability to form micelles (in words) [1] | KD (μM) (DC-SIGN CRD) | Kd (DC-SIGN CRD) | KD (μM) (DC-SIGN CRD; listed as TriDimanC24) | residual level of trans-infection (HIV-1 R5) | inhibition of HIV-1 cis-infection / replication in DCs (in words) (HIV-1 (R5 strain)) | inhibition of HIV-1 cis-infection / replication in DCs (in words) (HIV-1 (R5 strain); listed as TriManC24insat) | inhibition of Dengue virus infection of DCs (in words) (Dengue virus 2 (DV2)) | percentage of infected DCs (Dengue virus 2 (DV2); condition 2, 10 μM) | percentage of infected DCs (Dengue virus 2 (DV2); condition 2, 50 μM) | percentage of infected DCs (Dengue virus 2 (DV2); condition 2, 100 μM) | residual level of trans-infection (HIV-1 R5; HIV-1 R5, highest concentrations, relative to medium alone) | inhibition of HIV-1 trans-infection (in words) (HIV-1 R5; HIV-1 R5 where stated) | binding to DC-SIGN CRD (in words) (DC-SIGN CRD)
1 | CCCCCCCCCCCCCCCCCCCCCCCCC(=O)NC(COCCC(=O)NCCOCCOCCOCCOC1OC(CO)C(O)C(O)C1OC1OC(CO)C(O)C(O)C1O)(COCCC(=O)NCCOCCOCCOCCOC1OC(CO)C(O)C(O)C1OC1OC(CO)C(O)C(O)C1O)COCCC(=O)NCCOCCOCCOCCOC1OC(CO)C(O)C(O)C1OC1OC(CO)C(O)C(O)C1O (stereo not drawn) [TriDiManC24] | unable to form micelles; also recorded: failed to form micelles | low micromolar range | 3250 nM | Sub-micromolar | 40% | – | – | – | – | – | – | – | – | –
2 | CCCCCCCCCCCCC#CC#CCCCCCCCCC(=O)NC(COCCC(=O)NCCOCCOCCOCCOC1OC(CO)C(O)C(O)C1O)(COCCC(=O)NCCOCCOCCOCCOC1OC(CO)C(O)C(O)C1O)COCCC(=O)NCCOCCOCCOCCOC1OC(CO)C(O)C(O)C1O (stereo not drawn) [TriManinsatC24] | – | – | 470 nM | – | – | inhibit | decreases the amount of HIV R5 replication | able to inhibit the direct infection of DCs by Dengue virus | 40% | 20% | 2% | 2% | almost fully blocked HIV trans-infection at the highest concentrations | –
3 | mannan [reference compound] | – | – | – | – | – | – | – | – | – | – | – | – | – | bound efficiently
